Earlier results as cited in patent US6562605B1, “Extraction of water soluble biomaterials from fluids using a carbon dioxide/surfactant mixture” (Genencor International, Inc., priority 1995, dated 2003).
Like-named read-outs stand apart in the source and are kept apart here.

[1] = to 388 bar, 50° C. printed at first prior art line

| Molecule | Solubility in carbon dioxide [1] | Solubility in carbon dioxide (at 377 bar) | further results |
| --- | --- | --- | --- |
| CCCCCCS(=O)(=O)[O-].[Na+] [Alkyl sulfonate (C6, sodium salt, Fluka)] | insoluble to 388 bar (50° C.) | – | – |
| CCCCCCCCS(=O)(=O)[O-].[Na+] [Alkyl sulfonate (Niacet, NAS 08)] | – | – | Solubility in carbon dioxide (to 585 bar): insoluble to 585 bar |
| CCCCCCCCCCCCCC[N+](C)(C)C.[Br-] [Tetradecyl trimethyl ammonium bromide] | insoluble to 388 bar | – | – |
| Sorbitan monostearate [Sorbitan monostearate (Fluka, Span 60)] | – | slightly soluble at 377 bar | – |
| Sorbitan trioleate [Sorbitan trioleate (Fluka, Span 80)] | – | slightly soluble at 377 bar | – |
